Assay results: PubChem BioAssay AID212 (DTP/NCI, 2004)
“And” between values parts separate entries of the source, which are not always exact repeats. Identical values can stand only once. Inconclusive results are not listed.

Tested on: BDF1 mice, colon carcinoma 38 sc, T/C %
Assay: NCI In Vivo Anticancer Drug Screen. Data for tumor model Colon Carcinoma 38 (subcutaneous) in B6D2F1 (BDF1) mice
Procedure, shortened: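 Compound antitumor activity was assessed in mice carrying transplantable tumors. Survival or tumor size was recorded, and each value is the treated-group measurement divided by that of the vehicle-treated control group.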

[1] = endpoint: median tumor weight (est.), dose: 12.5 mg/kg/injection, schedule: Q07DX002 (ip), vehicle: saline, higher = larger tumour
[2] = endpoint: median tumor weight (est.), dose: 50.0 mg/kg/injection, schedule: Q07DX002 (ip), vehicle: saline, higher = larger tumour
[3] = endpoint: median tumor weight (est.), dose: 12.5 mg/kg/injection, schedule: Q07DX002 (ip), vehicle: saline with Tween-80, higher = larger tumour
[4] = endpoint: median tumor weight (est.), dose: 25.0 mg/kg/injection, schedule: Q07DX002 (ip), vehicle: saline with Tween-80, higher = larger tumour
[5] = endpoint: median tumor weight (est.), dose: 50.0 mg/kg/injection, schedule: Q07DX002 (ip), vehicle: saline with Tween-80, higher = larger tumour
[6] = endpoint: median tumor weight (est.), dose: 100.0 mg/kg/injection, schedule: Q07DX002 (ip), vehicle: saline with Tween-80, higher = larger tumour
[7] = endpoint: median tumor weight (est.), dose: 200.0 mg/kg/injection, schedule: Q07DX002 (ip), vehicle: saline with Tween-80, higher = larger tumour
[8] = endpoint: median tumor weight (est.), dose: 25.0 mg/kg/injection, schedule: Q07DX002 (ip), vehicle: Klucel (hydroxypropylcellulose) (HPC), higher = larger tumour
[9] = endpoint: median tumor weight (est.), dose: 50.0 mg/kg/injection, schedule: Q07DX002 (ip), vehicle: Klucel (hydroxypropylcellulose) (HPC), higher = larger tumour
[10] = endpoint: median tumor weight (est.), dose: 200.0 mg/kg/injection, schedule: Q07DX002 (ip), vehicle: Klucel (hydroxypropylcellulose) (HPC), higher = larger tumour
[11] = endpoint: median tumor weight (est.), dose: 400.0 mg/kg/injection, schedule: Q07DX002 (ip), vehicle: Klucel (hydroxypropylcellulose) (HPC), higher = larger tumour

SMILES: CCOC(=O)c1c[nH]c2oc(/C=N/N3CC(CN4CCOCC4)OC3=O)cc2c1=O (stereo not given)
- T/C (endpoint: median tumor weight (est.), dose: 25.0 mg/kg/injection, schedule: Q07DX003 (ip), vehicle: saline, higher = larger tumour): 116 % of control and 120 % of control
- T/C (endpoint: median tumor weight (est.), dose: 100.0 mg/kg/injection, schedule: Q07DX003 (ip), vehicle: saline, higher = larger tumour): 93 % of control and 102 % of control
- T/C (endpoint: median tumor weight (est.), dose: 150.0 mg/kg/injection, schedule: Q07DX002 (ip), vehicle: other, higher = larger tumour): 92 % of control
- T/C (endpoint: median tumor weight (est.), dose: 200.0 mg/kg/injection, schedule: Q07DX003 (ip), vehicle: saline, higher = larger tumour): 108 % of control and 106 % of control
- T/C (endpoint: median tumor weight (est.), dose: 300.0 mg/kg/injection, schedule: Q07DX002 (ip), vehicle: other, higher = larger tumour): 59 % of control
- T/C (endpoint: median tumor weight (est.), dose: 600.0 mg/kg/injection, schedule: Q07DX002 (ip), vehicle: other, higher = larger tumour): 59 % of control
- T/C (endpoint: median tumor weight (est.), dose: 900.0 mg/kg/injection, schedule: Q07DX002 (ip), vehicle: other, higher = larger tumour): 34 % of control

SMILES: OCCOCCN1CCN(CCCN2c3ccccc3Sc3ccc(C(F)(F)F)cc32)CC1
- T/C [1]: 94 % of control
- T/C [2]: 99 % of control

SMILES: O=c1s[se]c2ccccc12
- T/C (endpoint: median tumor weight (est.), dose: 3.12 mg/kg/injection, schedule: Q07DX002 (ip), vehicle: saline with Tween-80, higher = larger tumour): 73 % of control
- T/C [3]: 90 % of control
- T/C [4]: 83 % of control
- T/C [5]: 117 % of control

SMILES: Nc1ccc(C(=O)O)c(O)c1
- T/C (endpoint: median tumor weight (est.), dose: 42.0 mg/kg/injection, schedule: Q07DX002 (ip), vehicle: saline with Tween-80, higher = larger tumour): 120 % of control
- T/C (endpoint: median tumor weight (est.), dose: 84.0 mg/kg/injection, schedule: Q07DX002 (ip), vehicle: saline with Tween-80, higher = larger tumour): 89 % of control
- T/C (endpoint: median tumor weight (est.), dose: 168.0 mg/kg/injection, schedule: Q07DX002 (ip), vehicle: saline with Tween-80, higher = larger tumour): 93 % of control
- T/C (endpoint: median tumor weight (est.), dose: 337.0 mg/kg/injection, schedule: Q07DX002 (ip), vehicle: saline with Tween-80, higher = larger tumour): 80 % of control
- T/C (endpoint: median tumor weight (est.), dose: 675.0 mg/kg/injection, schedule: Q07DX002 (ip), vehicle: saline with Tween-80, higher = larger tumour): 111 % of control

SMILES: Nc1ncnc2c(C3OC(CO)C(O)C3O)[nH]nc12 (stereo not given)
- T/C (endpoint: median tumor weight (est.), dose: 15.0 mg/kg/injection, schedule: Q07DX002 (ip), vehicle: suspension in saline, higher = larger tumour): 193 % of control
- T/C (endpoint: median tumor weight (est.), dose: 30.0 mg/kg/injection, schedule: Q07DX002 (ip), vehicle: suspension in saline, higher = larger tumour): 201 % of control
- T/C (endpoint: median tumor weight (est.), dose: 60.0 mg/kg/injection, schedule: Q07DX002 (ip), vehicle: suspension in saline, higher = larger tumour): 168 % of control
- T/C (endpoint: median tumor weight (est.), dose: 120.0 mg/kg/injection, schedule: Q07DX002 (ip), vehicle: suspension in saline, higher = larger tumour): 150 % of control

SMILES: Cc1cc2c(cc1C)C(=O)c1c(O)c3c(c(O)c1C2=O)C[C@@](O)(C(=O)CO)C[C@@H]3OC1CC(N)C(O)C(C)O1 (stereo not given in full)
- T/C (endpoint: median tumor weight (est.), dose: 4.75 mg/kg/injection, schedule: Q07DX002 (ip), vehicle: distilled water + Tween-80, higher = larger tumour): 51 % of control
- T/C (endpoint: median tumor weight (est.), dose: 6.33 mg/kg/injection, schedule: Q07DX002 (ip), vehicle: distilled water + Tween-80, higher = larger tumour): 65 % of control
- T/C (endpoint: median tumor weight (est.), dose: 8.44 mg/kg/injection, schedule: Q07DX002 (ip), vehicle: distilled water + Tween-80, higher = larger tumour): 28 % of control
- T/C (endpoint: median tumor weight (est.), dose: 11.25 mg/kg/injection, schedule: Q07DX002 (ip), vehicle: distilled water + Tween-80, higher = larger tumour): 23 % of control
- T/C (endpoint: median tumor weight (est.), dose: 15.0 mg/kg/injection, schedule: Q07DX002 (ip), vehicle: distilled water + Tween-80, higher = larger tumour): 17 % of control

SMILES: CCN(CC)CCNc1ccc(C)c2sc3ccc(O)cc3c(=O)c12
- T/C [4]: 92 % of control
- T/C [5]: 74 % of control
- T/C [6]: 68 % of control
- T/C [7]: 33 % of control

SMILES: CN(C)N=Nc1cccc(C(N)=O)c1
- T/C (endpoint: median tumor weight (est.), dose: 10.0 mg/kg/injection, schedule: Q07DX002 (ip), vehicle: Klucel (hydroxypropylcellulose) (HPC), higher = larger tumour): 86 % of control
- T/C (endpoint: median tumor weight (est.), dose: 20.0 mg/kg/injection, schedule: Q07DX002 (ip), vehicle: Klucel (hydroxypropylcellulose) (HPC), higher = larger tumour): 86 % of control
- T/C (endpoint: median tumor weight (est.), dose: 20.0 mg/kg/injection, schedule: Q07DX002 (ip), vehicle: saline, higher = larger tumour): 97 % of control
- T/C (endpoint: median tumor weight (est.), dose: 40.0 mg/kg/injection, schedule: Q07DX002 (ip), vehicle: Klucel (hydroxypropylcellulose) (HPC), higher = larger tumour): 44 % of control
- T/C (endpoint: median tumor weight (est.), dose: 40.0 mg/kg/injection, schedule: Q07DX002 (ip), vehicle: saline, higher = larger tumour): 114 % of control and 104 % of control
- T/C (endpoint: median tumor weight (est.), dose: 80.0 mg/kg/injection, schedule: Q07DX002 (ip), vehicle: Klucel (hydroxypropylcellulose) (HPC), higher = larger tumour): 18 % of control
- T/C (endpoint: median tumor weight (est.), dose: 160.0 mg/kg/injection, schedule: Q07DX002 (ip), vehicle: saline, higher = larger tumour): 27 % of control and 29 % of control

SMILES: CC1=NNC(=O)C1CCO (stereo not given)
- T/C [8]: 97 % of control
- T/C [9]: 95 % of control
- T/C (endpoint: median tumor weight (est.), dose: 100.0 mg/kg/injection, schedule: Q07DX002 (ip), vehicle: Klucel (hydroxypropylcellulose) (HPC), higher = larger tumour): 69 % of control
- T/C [10]: 72 % of control
- T/C [11]: 55 % of control
- T/C (endpoint: median tumor weight (est.), dose: 800.0 mg/kg/injection, schedule: Q07DX002 (ip), vehicle: Klucel (hydroxypropylcellulose) (HPC), higher = larger tumour): 77 % of control

SMILES: Nc1ncn(C2OC(CO)C(O)C2O)c(=O)n1 (stereo not given)
- T/C [1]: 69 % of control
- T/C (endpoint: median tumor weight (est.), dose: 32.0 mg/kg/injection, schedule: Q07DX002 (ip), vehicle: saline, higher = larger tumour): 19 % of control and 31 % of control
- T/C [2]: 80 % of control and 85 % of control and 97 % of control
- T/C [7]: 88 % of control
- T/C (endpoint: median tumor weight (est.), dose: 400.0 mg/kg/injection, schedule: Q07DX002 (ip), vehicle: saline with Tween-80, higher = larger tumour): 61 % of control
- T/C (endpoint: median tumor weight (est.), dose: 400.0 mg/kg/injection, schedule: Q07DX002 (ip), vehicle: saline, higher = larger tumour): 62 % of control and 79 % of control and 82 % of control
- T/C (endpoint: median tumor weight (est.), dose: 800.0 mg/kg/injection, schedule: Q07DX002 (ip), vehicle: saline with Tween-80, higher = larger tumour): 95 % of control
- T/C (endpoint: median tumor weight (est.), dose: 800.0 mg/kg/injection, schedule: Q07DX002 (ip), vehicle: saline, higher = larger tumour): 27 % of control
- T/C (endpoint: median tumor weight (est.), dose: 1200.0 mg/kg/injection, schedule: Q07DX002 (ip), vehicle: saline with Tween-80, higher = larger tumour): 55 % of control

SMILES: O=C(Nc1cccc2c(OC(=O)C(Cl)Cl)c(N=Nc3ccc(S(=O)(=O)Nc4nccs4)cc3)cc(N=Nc3ccc(S(=O)(=O)Nc4nccs4)cc3)c12)C(Cl)Cl (tested in a mixture with another compound)
- T/C (endpoint: median tumor weight (est.), dose: 6.25 mg/kg/injection, schedule: Q07DX002 (ip), vehicle: saline with Tween-80, higher = larger tumour): 91 % of control
- T/C [3]: 100 % of control
- T/C [4]: 77 % of control
- T/C [5]: 92 % of control
- T/C [6]: 88 % of control

SMILES: OCC1OC(n2cnc3c(NO)ncnc32)C(O)C1O (stereo not given)
- T/C (endpoint: median tumor weight (est.), dose: 12.5 mg/kg/injection, schedule: Q07DX002 (ip), vehicle: Klucel (hydroxypropylcellulose) (HPC), higher = larger tumour): 88 % of control and 96 % of control
- T/C [8]: 89 % of control and 91 % of control
- T/C [9]: 121 % of control and 100 % of control
- T/C [10]: 118 % of control
- T/C [11]: 96 % of control and 106 % of control

SMILES: CC(=Nc1ccccc1)C1=C(O)C(Cc2ccccc2)NC1=O (stereo not given)
- T/C [3]: 86 % of control and 105 % of control
- T/C [6]: 45 % of control and 50 % of control
- T/C [7]: 70 % of control and 82 % of control

SMILES: CS(=O)(=O)Nc1ccc(C(=O)CCN2CCCCCC2)cc1
- T/C [5]: 96 % of control
- T/C [6]: 86 % of control
- T/C [7]: 95 % of control

SMILES: O=C1c2c(O)ccc(O)c2C(=O)c2c(NCCNCCO)ccc(NCCNCCO)c21
- T/C (endpoint: median survival time, dose: 1.0 mg/kg/injection, schedule: Q04DX004 (ip), vehicle: acid diluted with saline, higher = longer survival): 96 % of control
- T/C (endpoint: median survival time, dose: 2.3 mg/kg/injection, schedule: Q07DX004 (iv), vehicle: water, higher = longer survival): 153 % of control
- T/C (endpoint: median survival time, dose: 3.7 mg/kg/injection, schedule: Q07DX004 (iv), vehicle: water, higher = longer survival): 176 % of control
- T/C (endpoint: median survival time, dose: 4.0 mg/kg/injection, schedule: Q04DX004 (ip), vehicle: acid diluted with saline, higher = longer survival): 117 % of control
- T/C (endpoint: median survival time, dose: 6.0 mg/kg/injection, schedule: Q07DX004 (iv), vehicle: water, higher = longer survival): 199 % of control
- T/C (endpoint: median tumor weight (est.), dose: 0.5 mg/kg/injection, schedule: Q07DX002 (ip), vehicle: water, higher = larger tumour): 92 % of control and 100 % of control and 102 % of control
- T/C (endpoint: median tumor weight (est.), dose: 1.0 mg/kg/injection, schedule: Q07DX002 (ip), vehicle: acid diluted with saline, higher = larger tumour): 76 % of control
- T/C (endpoint: median tumor weight (est.), dose: 2.0 mg/kg/injection, schedule: Q07DX002 (ip), vehicle: acid diluted with saline, higher = larger tumour): 49 % of control
- T/C (endpoint: median tumor weight (est.), dose: 3.0 mg/kg/injection, schedule: Q07DX003 (ip), vehicle: saline with Tween-80, higher = larger tumour): 72 % of control
- T/C (endpoint: median tumor weight (est.), dose: 3.0 mg/kg/injection, schedule: Q07DX003 (iv), vehicle: acid diluted with saline, higher = larger tumour): 11 % of control
- T/C (endpoint: median tumor weight (est.), dose: 4.0 mg/kg/injection, schedule: Q07DX002 (ip), vehicle: acid diluted with saline, higher = larger tumour): 55 % of control
